Test results reported in patent US20240300932A1, “N-PHENYLIMINE DERIVATIVE AND PREPARATION METHOD AND USE THEREOF” (Guizhou University, priority 2023, published 2024).

Columns and labels:
Experiment in all cases: Post-emergence herbicidal activity test (stem and leaf spray, pot culture)
Format in all cases: in vivo
Conditions in all cases: 3 weeks after spraying
[1] = test system: Trifoliumre pensL.
Summary of the method: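 Pot-grown weeds in loam (pH 7), greenhouse at 20–30 °C, sprayed once post-emergence at the 2–3-leaf stage. Compound in acetone with Tween 80 plus methyl oleate oil (1.5 L/ha), applied at 10, 5 and 2.5 g/mu by spray tower. Effect scored 3 weeks after spraying, averaged over three repeats.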

[2] = test system: Setaria viridis
Summary of the method: (§1)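 Activity is given as a 0–5 grade of fresh weight growth control, scored three weeks after a single stem-and-leaf spray. Weeds in farmland loam were treated at the 2- to 3-leaf stage at 10, 5 and 2.5 g/mu, with methyl oleate added as synergist.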

[3] = test system: Portulaca oleracea
Summary of the method: as §1

[4] = test system: Abutilon theophrasti
Summary of the method: as §1

[5] = test system: Echinochloa crusgalli
Summary of the method: as §1

[6] = test system: Amaranthus retroflexus
Summary of the method: as §1

| SMILES | Post-emergence herbicidal activity, Trifoliumre pensL. (grade) ([1]; dosage 2.5 g/mu) | Post-emergence herbicidal activity, Trifoliumre pensL. (grade) ([1]; dosage 5 g/mu) | Post-emergence herbicidal activity, Trifoliumre pensL. (grade) ([1]; dosage 10 g/mu) | Post-emergence herbicidal activity, S. viridis (grade) ([2]; dosage 2.5 g/mu) | Post-emergence herbicidal activity, S. viridis (grade) ([2]; dosage 5 g/mu) | Post-emergence herbicidal activity, S. viridis (grade) ([2]; dosage 10 g/mu) | Post-emergence herbicidal activity, P. oleracea (grade) ([3]; dosage 2.5 g/mu) | Post-emergence herbicidal activity, P. oleracea (grade) ([3]; dosage 5 g/mu) | Post-emergence herbicidal activity, P. oleracea (grade) ([3]; dosage 10 g/mu) | Post-emergence herbicidal activity, A. theophrasti (grade) ([4]; dosage 2.5 g/mu) | Post-emergence herbicidal activity, A. theophrasti (grade) ([4]; dosage 5 g/mu) | Post-emergence herbicidal activity, A. theophrasti (grade) ([4]; dosage 10 g/mu) | Post-emergence herbicidal activity, E. crusgalli (grade) ([5]; dosage 2.5 g/mu) | Post-emergence herbicidal activity, E. crusgalli (grade) ([5]; dosage 5 g/mu) | Post-emergence herbicidal activity, E. crusgalli (grade) ([5]; dosage 10 g/mu) | Post-emergence herbicidal activity, A. retroflexus (grade) ([6]; dosage 2.5 g/mu) | Post-emergence herbicidal activity, A. retroflexus (grade) ([6]; dosage 5 g/mu) | Post-emergence herbicidal activity, A. retroflexus (grade) ([6]; dosage 10 g/mu) |
| --- | --- | --- | --- | --- | --- | --- | --- | --- | --- | --- | --- | --- | --- | --- | --- | --- | --- | --- |
| O=C1C2=C(CCCC2)C(=O)N1c1cc(OCc2nnc(-c3ccc([N+](=O)[O-])cc3)o2)c(Cl)cc1F [Compound B18] | 5 (Grade 5: the growth control rate is greater than or equal to 85%) | 5 (Grade 5: the growth control rate is greater than or equal to 85%) | 5 (Grade 5: the growth control rate is greater than or equal to 85%) | 2 (Grade 2: the growth control rate is greater than or equal to 20% and less than 40%) | 3 (Grade 3: the growth control rate is greater than or equal to 40% and less than 60%) | 4 (Grade 4: the growth control rate is greater than or equal to 60% and less than 85%) | 4 (Grade 4: the growth control rate is greater than or equal to 60% and less than 85%) | 5 (Grade 5: the growth control rate is greater than or equal to 85%) | 5 (Grade 5: the growth control rate is greater than or equal to 85%) | 4 (Grade 4: the growth control rate is greater than or equal to 60% and less than 85%) | 5 (Grade 5: the growth control rate is greater than or equal to 85%) | 5 (Grade 5: the growth control rate is greater than or equal to 85%) | 1 (Grade 1: the growth control rate is greater than or equal to 5% and less than 20%) | 2 (Grade 2: the growth control rate is greater than or equal to 20% and less than 40%) | 3 (Grade 3: the growth control rate is greater than or equal to 40% and less than 60%) | 5 (Grade 5: the growth control rate is greater than or equal to 85%) | 5 (Grade 5: the growth control rate is greater than or equal to 85%) | 5 (Grade 5: the growth control rate is greater than or equal to 85%) |
| O=C1C2=C(CCCC2)C(=O)N1c1cc(OCc2nc(-c3ccccc3F)no2)c(Cl)cc1F [Compound A12] | 4 (Grade 4: the growth control rate is greater than or equal to 60% and less than 85%) | 5 (Grade 5: the growth control rate is greater than or equal to 85%) | 5 (Grade 5: the growth control rate is greater than or equal to 85%) | 2 (Grade 2: the growth control rate is greater than or equal to 20% and less than 40%) | 3 (Grade 3: the growth control rate is greater than or equal to 40% and less than 60%) | 4 (Grade 4: the growth control rate is greater than or equal to 60% and less than 85%) | 4 (Grade 4: the growth control rate is greater than or equal to 60% and less than 85%) | 5 (Grade 5: the growth control rate is greater than or equal to 85%) | 5 (Grade 5: the growth control rate is greater than or equal to 85%) | 5 (Grade 5: the growth control rate is greater than or equal to 85%) | 5 (Grade 5: the growth control rate is greater than or equal to 85%) | 5 (Grade 5: the growth control rate is greater than or equal to 85%) | 1 (Grade 1: the growth control rate is greater than or equal to 5% and less than 20%) | 2 (Grade 2: the growth control rate is greater than or equal to 20% and less than 40%) | 3 (Grade 3: the growth control rate is greater than or equal to 40% and less than 60%) | 5 (Grade 5: the growth control rate is greater than or equal to 85%) | 5 (Grade 5: the growth control rate is greater than or equal to 85%) | 5 (Grade 5: the growth control rate is greater than or equal to 85%) |
| O=C1C2=C(CCCC2)C(=O)N1c1cc(OCc2nnc(-c3ccccc3F)o2)c(Cl)cc1F [Compound B1] | 5 (Grade 5: the growth control rate is greater than or equal to 85%) | 5 (Grade 5: the growth control rate is greater than or equal to 85%) | 5 (Grade 5: the growth control rate is greater than or equal to 85%) | 2 (Grade 2: the growth control rate is greater than or equal to 20% and less than 40%) | 3 (Grade 3: the growth control rate is greater than or equal to 40% and less than 60%) | 4 (Grade 4: the growth control rate is greater than or equal to 60% and less than 85%) | 5 (Grade 5: the growth control rate is greater than or equal to 85%) | 5 (Grade 5: the growth control rate is greater than or equal to 85%) | 5 (Grade 5: the growth control rate is greater than or equal to 85%) | 5 (Grade 5: the growth control rate is greater than or equal to 85%) | 5 (Grade 5: the growth control rate is greater than or equal to 85%) | 5 (Grade 5: the growth control rate is greater than or equal to 85%) | 1 (Grade 1: the growth control rate is greater than or equal to 5% and less than 20%) | 2 (Grade 2: the growth control rate is greater than or equal to 20% and less than 40%) | 3 (Grade 3: the growth control rate is greater than or equal to 40% and less than 60%) | 5 (Grade 5: the growth control rate is greater than or equal to 85%) | 5 (Grade 5: the growth control rate is greater than or equal to 85%) | 5 (Grade 5: the growth control rate is greater than or equal to 85%) |
| COc1ccccc1C(=O)COc1cc(N2C(=O)C3=C(CCCC3)C2=O)c(F)cc1Cl [Compound C6, 2-(4-chloro-2-fluoro-5-(2-oxo-2-(2-methoxyphenyl)ethoxy)phenyl)-4,5,6,7-tetrahydro-1H-isoindole-1,3(2H)-dione] | 5 (Grade 5: the growth control rate is greater than or equal to 85%) | 5 (Grade 5: the growth control rate is greater than or equal to 85%) | 5 (Grade 5: the growth control rate is greater than or equal to 85%) | 2 (Grade 2: the growth control rate is greater than or equal to 20% and less than 40%) | 3 (Grade 3: the growth control rate is greater than or equal to 40% and less than 60%) | 4 (Grade 4: the growth control rate is greater than or equal to 60% and less than 85%) | 5 (Grade 5: the growth control rate is greater than or equal to 85%) | 5 (Grade 5: the growth control rate is greater than or equal to 85%) | 5 (Grade 5: the growth control rate is greater than or equal to 85%) | 5 (Grade 5: the growth control rate is greater than or equal to 85%) | 5 (Grade 5: the growth control rate is greater than or equal to 85%) | 5 (Grade 5: the growth control rate is greater than or equal to 85%) | 1 (Grade 1: the growth control rate is greater than or equal to 5% and less than 20%) | 2 (Grade 2: the growth control rate is greater than or equal to 20% and less than 40%) | 3 (Grade 3: the growth control rate is greater than or equal to 40% and less than 60%) | 5 (Grade 5: the growth control rate is greater than or equal to 85%) | 5 (Grade 5: the growth control rate is greater than or equal to 85%) | 5 (Grade 5: the growth control rate is greater than or equal to 85%) |
